These results are taken from patent US9730944B2, “Antiviral activity of novel bicyclic heterocycles” (priority 2010, dated 2017).

For orientation: EC50 means the midpoint of the concentration-response curve.

One series relates to HIV-1 strain IIIB. Put plainly: Inhibition of replication of HIV-1 (IIIB strain) in MT-4 cells, MTT assay. In kind it is cell-based. Conditions: Human immunodeficiency virus 1, IIIB, MT4, 120 h; MT-4 cells, MTT assay, five days after infection, 50% protection from cytopathic effect; read-out: EC50 (μM) HIV-1 (IIIB). (Formazan colour is commonly taken as a measure of viable cells.)

A further series in a line: in vitro. The settings on record: human.
The next series concerns HIV-2 strain (ROD). Put plainly: Inhibition of replication of HIV-2 (ROD strain) in MT-4 cells, MTT assay. Conditions: Human immunodeficiency virus 2, MT4, 120 h; MT-4 cells, MTT assay, five days after infection, 50% protection from cytopathic effect; read-out: EC50 (μM) HIV-2 (ROD). In kind it is cell-based.
The nature of series [1]: Cytotoxicity in HCV-1a replicon cells, Promega CellTiter-Glo cell viability assay.
Series [2] has as its system genotype 1a H-77 replicon. Put plainly: HCV-1a replicon potency in RLuc-1 cells, bioluminescence. In kind it is cell-based. Conditions: for HCV-1a Replicon Selectivity Index: CC50/EC50, genotype 1a replicon; for EC50: Hepatitis C virus, 72 h, read-out: HCV-1a Replicon EC50 (μM). On the technique in general: A replicon is a self-replicating genome or part of one, used to study replication in cells.

Bounds are passed on as bounds.

For the molecule `CSc1nc(N)nc2sc(-c3ccc(F)cc3)nc12` [Example 16, 2-(4-fluorophenyl)-7-(methylthio)thiazolo[5,4-d]pyrimidin-5-amine], the EC50 in the series on HIV-1 strain IIIB is > 233 µM; with HIV-2 strain (ROD), > 82.1 µM. Moreover, the CC50 in “in vitro” was found to be 82.1 µM.

For the molecule `Nc1nc(N2CCNCC2)c2nc(-c3ccc(F)cc3)sc2n1` [Example 25, 2-(4-fluorophenyl)-7-(piperazin-1-yl)-thiazolo[5,4-d]pyrimidin-5-amine], the 50% effective concentration (EC50) in the series with HIV-1 strain IIIB and in the series with HIV-2 strain (ROD) was > 1.8 µM each time. The same molecule gave a CC50 in the series “in vitro” of 1.8 µM.

With `Nc1nc(SCc2ccccc2)c2nc(-c3ccc(F)cc3)sc2n1` [Example 28, 7-(benzylthio)-2-(4-fluorophenyl)thiazolo[5,4-d]pyrimidin-5-amine], the EC50 with HIV-1 strain IIIB and in the series on HIV-2 strain (ROD) was > 339 µM in each case. For the same molecule, the CC50 in the series “in vitro” is > 339 µM.

For `COCCOc1nc(N)nc2sc(-c3ccc(F)cc3)nc12` [Example 29, 2-(4-fluorophenyl)-7-(2-methoxyethoxy)-thiazolo[5,4-d]pyrimidin-5-amine], the EC50 in the series on HIV-1 strain IIIB was > 390 µM; in the series on HIV-2 strain (ROD), 220 µM. The CC50 in the series “in vitro” is > 390 µM.

Take `CCOc1nc(N)nc2sc(-c3ccc(F)cc3)nc12` [Example 30, 7-ethoxy-2-(4-fluorophenyl)thiazolo[5,4-d]pyrimidin-5-amine]: the half-maximal effective concentration (EC50) in the series with HIV-1 strain IIIB and in the series on HIV-2 strain (ROD) was > 373 µM throughout. In addition, the CC50 in “in vitro” is > 373 µM.

As to `CCOc1nc(N)nc2sc(Cc3ccc(F)cc3)nc12` [Example 31, 7-ethoxy-2-(4-fluorobenzyl)thiazolo[5,4-d]pyrimidin-5-amine], the concentration giving a half-maximal response (EC50) with HIV-1 strain IIIB and in the series with HIV-2 strain (ROD) was > 411 µM in each case. Further, the CC50 in “in vitro” was > 411 µM.

As to `Nc1nc(N2CCOCC2)c2nc(-c3ccc(F)cc3)sc2n1` [Example 33, 2-(4-fluorophenyl)-7-morpholino-thiazolo[5,4-d]pyrimidin-5-amine], the EC50 was > 207 µM in the series on HIV-1 strain IIIB and 141 µM in the series with HIV-2 strain (ROD). Also, in “in vitro”, the CC50 came to 235 µM.

Turning to `Nc1nc(N2CCOCC2)c2nc(Cc3ccc(F)cc3)sc2n1` [Example 34, 2-(4-fluorobenzyl)-7-morpholino-thiazolo[5,4-d]pyrimidin-5-amine], the EC50 in the series with HIV-1 strain IIIB and with HIV-2 strain (ROD) was > 362 µM in each case. Besides, in the series “in vitro”, the CC50 is > 362 µM.

For `Cc1cccc(N2CCN(c3nc(N)nc4sc(-c5ccc(F)cc5)nc34)CC2)c1` [Example 35, 2-(4-fluorophenyl)-7-(4-m-tolylpiperazin-1-yl)-thiazolo[5,4-d]pyrimidin-5-amine], the EC50 in the series with HIV-1 strain IIIB was > 234 µM; in the series on HIV-2 strain (ROD), > 38.5 µM. Also, the CC50 in the series “in vitro” is 234 µM.

With `Nc1nc(N2CCN(c3nccs3)CC2)c2nc(-c3ccc(F)cc3)sc2n1` [Example 36, 2-(4-fluorophenyl)-7-(4-(thiazol-2-yl)piperazin-1-yl)thiazolo[5,4-d]pyrimidin-5-amine], the 50% effective concentration (EC50) in the series with HIV-1 strain IIIB is > 29 µM; in the series with HIV-2 strain (ROD), > 36.4 µM. This molecule displayed a CC50 in “in vitro” of 36.4 µM.

For the molecule `CCCCCN1CCN(c2nc(N)nc3sc(-c4ccc(F)cc4)nc23)CC1` [Example 37, 2-(4-fluorophenyl)-7-(4-pentylpiperazin-1-yl)thiazolo[5,4-d]pyrimidin-5-amine], the 50% effective concentration (EC50) is > 312 µM with HIV-1 strain IIIB and 212 µM with HIV-2 strain (ROD). Also, the CC50 in “in vitro” is > 312 µM.

Take `Nc1nc(N2CCN(CC(=O)N3CCOCC3)CC2)c2nc(-c3ccc(F)cc3)sc2n1` [Example 38, 2-(4-(5-amino-2-(4-fluorophenyl)thiazolo[5,4-d]pyrimidin-7-yl)piperazin-1-yl)-1-morpholinoethanone]: the EC50 in the series on HIV-1 strain IIIB is > 251 µM; in the series on HIV-2 strain (ROD), > 201 µM. Further, in “in vitro”, the CC50 worked out at 201 µM.

For the molecule `Nc1nc(N2CCN(Cc3ccccc3)CC2)c2nc(-c3ccc(F)cc3)sc2n1` [Example 39, 7-(4-benzylpiperazin-1-yl)-2-(4-fluorophenyl)thiazolo[5,4-d]pyrimidin-5-amine], the half-maximal effective concentration (EC50) in the series on HIV-1 strain IIIB and in the series on HIV-2 strain (ROD) was > 45.2 µM throughout. Moreover, in “in vitro”, the CC50 amounted to 45.2 µM.

Take `Nc1nc(N2CCN(C(=O)OCc3ccccc3)CC2)c2nc(-c3ccc(F)cc3)sc2n1` [Example 40, benzyl-4-(5-amino-2-(4-fluorophenyl)thiazolo[5,4-d]pyrimidin-7-yl)piperazine-1-carboxylate]: the concentration for a half-maximal effect (EC50) with HIV-1 strain IIIB and in the series on HIV-2 strain (ROD) was > 241 µM in each case. In “in vitro”, this molecule registered a CC50 of 241 µM.

For `Nc1nc(N2CCN(S(=O)(=O)c3ccccc3)CC2)c2nc(-c3ccc(F)cc3)sc2n1` [Example 41, 2-(4-fluorophenyl)-7-(4-(phenylsulfonyl)piperazin-1-yl)thiazolo[5,4-d]pyrimidin-5-amine], the EC50 with HIV-1 strain IIIB and in the series on HIV-2 strain (ROD) was > 237 µM in each case. In “in vitro”, this molecule displayed a CC50 of 237 µM.

Turning to `Cc1ccc(NC(=O)N2CCN(c3nc(N)nc4sc(-c5ccc(F)cc5)nc34)CC2)cc1` [Example 42, 4-(5-amino-2-(4-fluorophenyl)-thiazolo[5,4-d]pyrimidin-7-yl)-N-p-tolylpiperazine-1-carboxamide], the EC50 with HIV-1 strain IIIB was 1.35 µM; in the series on HIV-2 strain (ROD) it was 0.98 µM. In the series “in vitro”, the CC50 stood at 28.2 µM.

Regarding `Cc1cccc(NC(=O)N2CCN(c3nc(N)nc4sc(-c5ccc(F)cc5)nc34)CC2)c1` [Example 43, 4-(5-amino-2-(4-fluorophenyl)thiazolo[5,4-d]pyrimidin-7-yl)-N-m-tolylpiperazine-1-carboxamide], the half-maximal effective concentration (EC50) with HIV-1 strain IIIB is 0.4 µM; in the series on HIV-2 strain (ROD), 0.39 µM. Moreover, the CC50 in “in vitro” was 15.8 µM.

Regarding `Cc1cccc(NC(=O)N2CCN(c3nc(N)nc4sc(Cc5ccc(F)cc5)nc34)CC2)c1` [Example 44, 4-(5-amino-2-(4-fluorobenzyl)thiazolo[5,4-d]pyrimidin-7-yl)-N-m-tolylpiperazine-1-carboxamide], the EC50 worked out at 4.02 µM in the series on HIV-1 strain IIIB and 0.85 µM with HIV-2 strain (ROD). In the series “in vitro”, this molecule displayed a CC50 of 10.1 µM.

For the molecule `COc1ccc(OCC(=O)N2CCN(c3nc(N)nc4sc(CCc5ccc(F)cc5)nc34)CC2)cc1` [Example 50, 1-(4-(5-amino-2-(4-fluorophenethyl)thiazolo[5,4-d]pyrimidin-7-yl)piperazin-1-yl)-2-(4-methoxyphenoxy)ethanone], the EC50 in the series with HIV-1 strain IIIB is 3.5 µM; in the series on HIV-2 strain (ROD), > 212 µM. In the series “in vitro”, the CC50 was 212 µM.

As for `Cc1cccc(NC(=O)N2CCN(c3nc(N)nc4sc(C(C)c5ccc(F)cc5)nc34)CC2)c1` (stereo not drawn) [Example 68, 4-(5-amino-2-(1-(4-fluorophenyl)ethyl)thiazolo[5,4-d]pyrimidin-7-yl)-N-m-tolylpiperazine-1-carboxamide], the concentration giving a half-maximal response (EC50) with HIV-1 strain IIIB and with HIV-2 strain (ROD) was > 30.3 µM each time. In “in vitro”, this molecule yielded a CC50 of 30.3 µM.

As to `Nc1nc(N2CCN(C(=O)COc3ccc(Cl)cc3)CC2)c2nc(-c3ccc(Cl)c(Cl)c3)sc2n1` [Example 116, 5-amino-7-[4-(4-chlorophenoxyacetyl)piperazin-1-yl]-2-(3,4-dichlorophenyl)thiazolo[5,4-d]pyrimidine], the CC50 at 72 h in series [1] stood at 37.2 µM. In series [2], the “HCV-1a Replicon Selectivity Index” value was determined as 0.8 and the EC50 is > 44.4 µM.

Consider `Nc1nc(N2CCN(C(=O)COc3ccc(Cl)cc3)CC2)c2nc(C3(c4ccc(Cl)cc4)CC3)sc2n1` [Example 117, 5-amino-7-[4-(4-chlorophenoxyacetyl)piperazin-1-yl]-2-(1-(4-chlorophenyl)cyclopropyl)thiazolo[5,4-d]pyrimidine], for which the CC50 at 72 h in series [1] is 23.3 µM. Also, in series [2], the “HCV-1a Replicon Selectivity Index” value was 1.3 and the half-maximal effective concentration (EC50) came to 17.7 µM.

`Nc1nc(N2CCN(C(=O)COc3ccc(Cl)cc3)CC2)c2nc(CCc3ccccc3)sc2n1` [Example 118, 5-amino-7-[4-(4-chlorophenoxyacetyl)piperazin-1-yl]-2-(2-phenylethyl)thiazolo[5,4-d]pyrimidine] yielded a CC50 at 72 h in series [1] of 30.3 µM. In series [2], the “HCV-1a Replicon Selectivity Index” value was determined as 8.4 and the EC50 was determined as 3.6 µM.

Turning to `Nc1nc(N2CCN(C(=O)COc3ccc(Cl)cc3)CC2)c2nc(C3CCCCC3)sc2n1` [Example 120, 5-amino-7-[4-(4-chlorophenoxyacetyl)piperazin-1-yl]-2-cyclohexylthiazolo[5,4-d]pyrimidine], the CC50 at 72 h in series [1] is 13.4 µM. In series [2], the “HCV-1a Replicon Selectivity Index” value amounted to 2.1 and the 50% effective concentration (EC50) is 6.4 µM.

On to `Nc1nc(N2CCN(C(=O)COc3ccc(Cl)cc3)CC2)c2nc(-c3cccnc3)sc2n1` [Example 121a, 5-amino-7-[4-(4-chlorophenoxyacetyl)piperazin-1-yl]-2-(pyridine-3-yl)thiazolo[5,4-d]pyrimidine], for which the CC50 at 72 h in series [1] is > 44.4 µM. In series [2], the “HCV-1a Replicon Selectivity Index” value is >888 and the concentration giving a half-maximal response (EC50) was found to be 0.05 µM.

With `Nc1nc(N2CCN(C(=O)COc3ccc(Cl)cc3)CC2)c2nc(Cc3ccc(Cl)cc3)sc2n1` [Example 122, 5-amino-7-[4-(4-chlorophenoxyacetyl)piperazin-1-yl]-2-(4-chlorophenylmethyl)thiazolo[5,4-d]pyrimidine], the CC50 at 72 h in series [1] was found to be 26.8 µM. In series [2], the “HCV-1a Replicon Selectivity Index” value was determined as 5.8 and the concentration giving a half-maximal response (EC50) was determined as 4.7 µM.

Regarding `Nc1nc(N2CCN(C(=O)COc3ccc(Cl)cc3)CC2)c2nc(-c3ccc(F)cc3)oc2n1` [Example 169, 1-(4-(5-amino-2-(4-fluorophenyl)oxazolo[5,4-d]pyrimidin-7-yl)piperazin-1-yl)-2-(4-chlorophenoxy)ethanone], the EC50 with HIV-1 strain IIIB and in the series with HIV-2 strain (ROD) was > 50 µM each time. In addition, the CC50 in the series “in vitro” is > 50 µM.

`Nc1nc(N2CCOCC2)c2cc(-c3ccc(F)cc3)sc2n1` [Example 364, 6-(4-fluorophenyl)-4-morpholinothieno[2,3-d]pyrimidin-2-amine]: the EC50 in the series with HIV-1 strain IIIB and in the series on HIV-2 strain (ROD) was > 239 µM throughout. In addition, the CC50 in “in vitro” came to 239 µM.
